Test: Multicentre, double-blind, placebo-controlled clinical trial of glycaemic and renal effects of linagliptin in patients with type 2 diabetes and albuminuria
Format: in vivo, human
Description: A multicentre, double-blind, placebo-controlled clinical trial investigates glycaemic and renal effects of linagliptin in patients with type 2 diabetes, album inuria and estimated GFR ≥30 ml/min/1.73 m2 (with or without renal function impairment).
A total of 360 patients with type 2 diabetes (HbA1c 6.5-10%) and persistent albuminuria (urinary albumin-to-creatinine ratio [UACR] 30-3000 mg/gCr; i.e. micro- or macro-albuminuria) despite stable background (standard-of-care) of single renin-angiotensin system blockade (ARB or ACE inhibitor) are randomised to either linagliptin 5 mg (n=182) or placebo (n=178) for 24 weeks. Primary glycaemic and key secondary renal surrogate endpoints are HbA1c and UACR change from baseline over 24 weeks, respectively.

## CC#CCn1c(N2CCC[C@@H](N)C2)nc2c1c(=O)n(Cc1nc(C)c3ccccc3n1)c(=O)n2C [linagliptin, 1-[(4-methyl-quinazolin-2-yl)methyl]-3-methyl-7-(2-butyn-1-yl)-8-(3-(R)-amino-piperidin-1-yl)-xanthine]
Over 24 weeks, linagliptin 5 mg vs placebo, 95% CI −15.0, 3.0, NS
  placebo-adjusted gMean for time-weighted average of % change in UCAR from baseline: −6.0%
Over 24 weeks, linagliptin 5 mg, 95% CI −16.8, −4.7
  gMean for time-weighted average of % change from baseline in UACR: −11.0%
Post hoc exploratory subgroup analysis, linagliptin on metformin background (and CKD3, eGFR 30-60) compared to patients without metformin
  difference in the changes from baseline vs. placebo in urinary albumin to creatinine ratio (UACR), subgroup on a background of metformin: numerically larger difference
Week 24, linagliptin 5 mg vs placebo, 95% CI −0.78, −0.43, p<0.0001
  placebo-adjusted mean HbA1c change from baseline: −0.60%

Reference: patent US20190060320A1, “MEDICAL USE OF PHARMACEUTICAL COMBINATION OR COMPOSITION” (Boehringer Ingelheim International GmbH, priority 2016, published 2019)
